Format in all cases: functional
Test [1] deals with Staphylococcus aureus. Nature of the test: Antibacterial activity against methicillin-sensitive Staphylococcus aureus after 18 to 20 hrs by microbroth dilution method.
The next test concerns Enterococcus faecalis. In words: Antibacterial activity against Enterococcus faecalis after 18 to 20 hrs by microbroth dilution method. (In broth dilution the organism is exposed to a series of concentrations in liquid medium.)
The next test relates to Escherichia coli. Nature of the test: Antibacterial activity against Escherichia coli after 18 to 20 hrs by microbroth dilution method.
For test [2], the system named is Staphylococcus aureus. Nature of the test: Antibacterial activity against methicillin-resistant Staphylococcus aureus after 18 to 20 hrs by microbroth dilution method.

SMILES strings stand for the structures. Converted amounts (≈) assume the structure as drawn.

`O=[N+]([O-])c1ccc(S(=O)(=O)NCc2ccccc2)c([N+](=O)[O-])c1` had a minimal inhibitory concentration (MIC) against Staphylococcus aureus [1] of more than 16 µg/mL.
Take `C=CCN(c1cccc(OC)c1)S(=O)(=O)c1ccc([N+](=O)[O-])cc1[N+](=O)[O-]`: the minimal inhibitory concentration (MIC) in the test with Enterococcus faecalis was 16 µg/mL (≈ 40.7 µM); in the test with Escherichia coli, more than 32 µg/mL; in the test on Staphylococcus aureus [2], 8 µg/mL (≈ 20.3 µM); against Staphylococcus aureus [1], 8 µg/mL (≈ 20.3 µM).
Regarding `CCCCN(c1ccccc1OC)S(=O)(=O)c1ccc([N+](=O)[O-])cc1[N+](=O)[O-]`, the MIC in the test with Enterococcus faecalis, against Escherichia coli and in the test on Staphylococcus aureus [1] was more than 32 µg/mL each time.
In the case of `COc1ccccc1N(C)S(=O)(=O)c1ccc([N+](=O)[O-])cc1[N+](=O)[O-]`, the MIC in the test on Enterococcus faecalis is 16 µg/mL (≈ 43.6 µM); in the test with Escherichia coli, more than 32 µg/mL; with Staphylococcus aureus [2], 16 µg/mL (≈ 43.6 µM); in the test with Staphylococcus aureus [1], 16 µg/mL (≈ 43.6 µM).
Regarding `COc1cccc(NS(=O)(=O)c2ccc([N+](=O)[O-])cc2[N+](=O)[O-])c1`, the minimal inhibitory concentration (MIC) with Enterococcus faecalis was more than 32 µg/mL; in the test on Escherichia coli, more than 32 µg/mL; in the test with Staphylococcus aureus [2] it was 32 µg/mL (≈ 90.6 µM); in the test with Staphylococcus aureus [1], 16 µg/mL (≈ 45.3 µM).
As for `CCN(c1ccccc1OC)S(=O)(=O)c1ccc([N+](=O)[O-])cc1[N+](=O)[O-]`, the minimal inhibitory concentration (MIC) in the test with Enterococcus faecalis is more than 32 µg/mL; with Escherichia coli, more than 32 µg/mL; against Staphylococcus aureus [2], 8 µg/mL (≈ 21 µM); in the test on Staphylococcus aureus [1], 8 µg/mL (≈ 21 µM).
As for `C#CCN(Cc1ccc(OC)cc1)S(=O)(=O)c1ccc([N+](=O)[O-])cc1[N+](=O)[O-]`, the minimum inhibitory concentration (MIC) was 16 µg/mL (≈ 39.5 µM) in the test with Enterococcus faecalis, more than 32 µg/mL in the test with Escherichia coli, 8 µg/mL (≈ 19.7 µM) in the test on Staphylococcus aureus [2] and 8 µg/mL (≈ 19.7 µM) against Staphylococcus aureus [1].
With `CCCN(c1ccccc1OC)S(=O)(=O)c1ccc([N+](=O)[O-])cc1[N+](=O)[O-]`, the minimum inhibitory concentration (MIC) in the test with Enterococcus faecalis, with Escherichia coli and in the test with Staphylococcus aureus [1] was more than 32 µg/mL in each case.
As for `C#CCN(Cc1ccccc1)S(=O)(=O)c1ccc([N+](=O)[O-])cc1[N+](=O)[O-]`, the MIC was 16 µg/mL (≈ 42.6 µM) against Enterococcus faecalis, more than 32 µg/mL against Escherichia coli, 4 µg/mL (≈ 10.7 µM) with Staphylococcus aureus [2] and 4 µg/mL (≈ 10.7 µM) in the test on Staphylococcus aureus [1].
Take `O=[N+]([O-])c1ccc(S(=O)(=O)Nc2ccccc2)c([N+](=O)[O-])c1`: the minimum inhibitory concentration (MIC) in the test on Staphylococcus aureus [1] came out at 8 µg/mL (≈ 24.7 µM).
In the test with Staphylococcus aureus [1], `COc1ccc(NS(=O)(=O)c2ccc([N+](=O)[O-])cc2[N+](=O)[O-])cc1` registered an MIC of more than 16 µg/mL.
In the test with Staphylococcus aureus [1], `O=[N+]([O-])c1ccc(S(=O)(=O)N(CCCN(c2ccccc2F)S(=O)(=O)c2ccc([N+](=O)[O-])cc2[N+](=O)[O-])Cc2ccccc2)c([N+](=O)[O-])c1` came in with a minimum inhibitory concentration (MIC) of more than 32 µg/mL.
Regarding `CC(=O)NC[C@H]1CN(c2ccc(N3CCOCC3)c(F)c2)C(=O)O1` [LINEZOLID], 1 µg/mL (≈ 2.96 µM) was the least that counted as inhibitory against Staphylococcus aureus [2] (MIC).
For the compound `COc1ccccc1NS(=O)(=O)c1ccc([N+](=O)[O-])cc1[N+](=O)[O-]`, the minimum inhibitory concentration (MIC) was 16 µg/mL (≈ 45.3 µM) in the test with Enterococcus faecalis, more than 32 µg/mL in the test on Escherichia coli, 8 µg/mL (≈ 22.6 µM) in the test with Staphylococcus aureus [2] and 8 µg/mL (≈ 22.6 µM) in the test on Staphylococcus aureus [1].
Compound `CN(Cc1ccccc1)S(=O)(=O)c1ccc([N+](=O)[O-])cc1[N+](=O)[O-]` showed an MIC against Staphylococcus aureus [1] of 8 µg/mL (≈ 22.8 µM).
`O=[N+]([O-])c1ccc(S(=O)(=O)Nc2ccc(F)cc2)c([N+](=O)[O-])c1` showed an MIC against Staphylococcus aureus [1] of 16 µg/mL (≈ 46.9 µM).
`C#CCN(Cc1cccc(OC)c1)S(=O)(=O)c1ccc([N+](=O)[O-])cc1[N+](=O)[O-]` displayed a minimum inhibitory concentration (MIC) against Staphylococcus aureus [1] of 16 µg/mL (≈ 39.5 µM).
Compound `COc1cccc(N(CCCN(Cc2ccccc2)S(=O)(=O)c2ccc([N+](=O)[O-])cc2[N+](=O)[O-])S(=O)(=O)c2ccc([N+](=O)[O-])cc2[N+](=O)[O-])c1` returned a minimal inhibitory concentration (MIC) against Staphylococcus aureus [1] of more than 32 µg/mL.
`O=[N+]([O-])c1ccc(S(=O)(=O)N(CCCN(c2ccccc2)S(=O)(=O)c2ccc([N+](=O)[O-])cc2[N+](=O)[O-])Cc2ccccc2)c([N+](=O)[O-])c1`: the MIC against Staphylococcus aureus [1] was more than 16 µg/mL.
In the case of `C#CCN(C)S(=O)(=O)c1ccc([N+](=O)[O-])cc1[N+](=O)[O-]`, the minimum inhibitory concentration (MIC) with Enterococcus faecalis was more than 32 µg/mL; in the test on Escherichia coli, more than 32 µg/mL; in the test on Staphylococcus aureus [2], 8 µg/mL (≈ 26.7 µM); against Staphylococcus aureus [1], 8 µg/mL (≈ 26.7 µM).
For the compound `C=CCN(c1ccccc1OC)S(=O)(=O)c1ccc([N+](=O)[O-])cc1[N+](=O)[O-]`, the MIC against Enterococcus faecalis was more than 32 µg/mL; in the test on Escherichia coli it was more than 32 µg/mL; against Staphylococcus aureus [2] it was 4 µg/mL (≈ 10.2 µM); in the test on Staphylococcus aureus [1], 8 µg/mL (≈ 20.3 µM).
Turning to `COc1ccccc1CN(CCCN(Cc1ccccc1)S(=O)(=O)c1ccc([N+](=O)[O-])cc1[N+](=O)[O-])S(=O)(=O)c1ccc([N+](=O)[O-])cc1[N+](=O)[O-]`, the MIC with Enterococcus faecalis, against Escherichia coli and against Staphylococcus aureus [1] was more than 32 µg/mL in each case.
For the compound `COc1ccccc1N(Cc1ccccc1)S(=O)(=O)c1ccc([N+](=O)[O-])cc1[N+](=O)[O-]`, the minimum inhibitory concentration (MIC) in the test on Enterococcus faecalis, in the test with Escherichia coli and in the test with Staphylococcus aureus [1] was more than 32 µg/mL in each case.
In the test on Staphylococcus aureus [1], `COc1ccc(CNS(=O)(=O)c2ccc([N+](=O)[O-])cc2[N+](=O)[O-])cc1` registered an MIC of more than 16 µg/mL.
With `COc1cccc(N(C)S(=O)(=O)c2ccc([N+](=O)[O-])cc2[N+](=O)[O-])c1`, the MIC against Enterococcus faecalis was 8 µg/mL (≈ 21.8 µM); against Escherichia coli it was more than 32 µg/mL; in the test on Staphylococcus aureus [2], 4 µg/mL (≈ 10.9 µM); against Staphylococcus aureus [1] it was 8 µg/mL (≈ 21.8 µM).
The compound `COc1ccccc1N(CCCN(Cc1ccccc1)S(=O)(=O)c1ccc([N+](=O)[O-])cc1[N+](=O)[O-])S(=O)(=O)c1ccc([N+](=O)[O-])cc1[N+](=O)[O-]` yielded an MIC in the test with Staphylococcus aureus [1] of more than 32 µg/mL.
The compound `O=[N+]([O-])c1ccc(S(=O)(=O)N(CCCN(Cc2ccccc2)S(=O)(=O)c2ccc([N+](=O)[O-])cc2[N+](=O)[O-])Cc2ccccc2)c([N+](=O)[O-])c1` came in with an MIC in the test on Staphylococcus aureus [1] of more than 16 µg/mL.
`N#Cc1ccc(NS(=O)(=O)c2ccc([N+](=O)[O-])cc2[N+](=O)[O-])cc1` registered a minimal inhibitory concentration (MIC) in the test on Staphylococcus aureus [1] of more than 16 µg/mL.
On to `COc1ccc(CN(CCCN(Cc2ccccc2)S(=O)(=O)c2ccc([N+](=O)[O-])cc2[N+](=O)[O-])S(=O)(=O)c2ccc([N+](=O)[O-])cc2[N+](=O)[O-])cc1`, for which the minimum inhibitory concentration (MIC) in the test on Enterococcus faecalis, in the test on Escherichia coli and against Staphylococcus aureus [1] was more than 32 µg/mL each time.
Take `CCN(c1cccc(OC)c1)S(=O)(=O)c1ccc([N+](=O)[O-])cc1[N+](=O)[O-]`: the MIC with Enterococcus faecalis was 8 µg/mL (≈ 21 µM); in the test on Escherichia coli, more than 32 µg/mL; with Staphylococcus aureus [2], 8 µg/mL (≈ 21 µM); with Staphylococcus aureus [1], 8 µg/mL (≈ 21 µM).
For `COc1ccc(N(CCCN(Cc2ccccc2)S(=O)(=O)c2ccc([N+](=O)[O-])cc2[N+](=O)[O-])S(=O)(=O)c2ccc([N+](=O)[O-])cc2[N+](=O)[O-])cc1`, in the test on Staphylococcus aureus [1], the minimum inhibitory concentration (MIC) is more than 32 µg/mL.
Consider `O=[N+]([O-])c1ccc(S(=O)(=O)N(CCCO)Cc2ccccc2)c([N+](=O)[O-])c1`, for which the MIC was 32 µg/mL (≈ 80.9 µM) in the test with Enterococcus faecalis, more than 32 µg/mL with Escherichia coli, 8 µg/mL (≈ 20.2 µM) against Staphylococcus aureus [2] and 16 µg/mL (≈ 40.5 µM) in the test with Staphylococcus aureus [1].
The like results for `C#CCN(c1ccccc1OC)S(=O)(=O)c1ccc([N+](=O)[O-])cc1[N+](=O)[O-]` were, in that order, 8 µg/mL (≈ 20.4 µM), more than 32 µg/mL, 8 µg/mL (≈ 20.4 µM) and 4 µg/mL (≈ 10.2 µM).

Usually MIC stands for the lowest concentration found to suppress growth. Read a high MIC as weaker potency.

Source of the values: ChEMBL document CHEMBL3588802, “Thiol activated prodrugs of sulfur dioxide (SO2) as MRSA inhibitors” (Bioorg Med Chem Lett, 2015).
